Experiments:
PC12-HS cells = assay: Evaluation method B: neurite-outgrowth promoting activity in the presence of NGF; type: cell-based, rat; settings: for Neurite-outgrowth rate (%) / Action on PC12-HS neurite-outgrowth promotion (500 ng/ml): NGF 10 ng/ml; for Action on PC12-HS neurite-outgrowth promotion (500 ng/ml): 3 days, class of neurite-outgrowth rate; for neurite-outgrowth promoting activity (in words): 200 and 1,000 nM, comment on Table 2
Source text: As a model of the nerve cell, the NGF (nerve growth factor) highly sensitive strain of PC12 cell derived from the rat adrenal pheochromocytoma (hereinafter referred to as “PC12-HS cell”; JCRB cell bank, National Research and Development Institute of Health and Nutrition), which has been widely used as a suitable model for research on human neurodegenerative disease, was used. As the test compound, […] of trimethine cyanine dye compounds; NK-5 (Chemical formula 2), NK-36 (Chemical formula 3), NK-44 (Chemical formula 5) and dye compounds represented by Chemical formulae 12 to 18, and NK-6 (Chemical formula 7), which is a monomethine cyanine dye, were selected. In addition, two kinds of ethylene cross-linked dyes (Chemical formulae 19 and 20), 15 kinds of monomethine cyanine dyes (Chemical formulae 21 to 35), and seven kinds of trimethine cyanine dyes (Chemical formulae 36 to 42), which were expected to have a good neurocyte growth acceleration activity and/or neurite-outgrowth promoting activity in the screening disclosed in Patent literature 6, were also re-evaluated for comparison. The Chemical formulae 12 to 42 are shown below.
The cyanine dye compounds subjected to the test (purity 97% by mass or more, synthesized by Hayashibara Co., Ltd., Okayama, Japan) were individually dissolved in DMSO (product number “D8418”, commercialized by SIGMA Corporation) at a concentration of 5 mg/ml, and the solutions were then filtered through DMSO-resistant membrane (“Millex-LGS LLG025SS”, commercialized by Millipore Corporation) and stored at 25° C. in a dark condition. At the time of use, they were further diluted with Dulbecco's Medium (hereinafter, abbreviated as “D-MEM medium”, commercialized by Nissui Pharmaceutical Co., Ltd.) supplemented by 10% by volume of fetal bovine serum (FBS), and subjected to the test.
As in the case of evaluation of neurocyte growth accelerating activity (Evaluation method A), 50 μl/well of each test compound solution, prepared by diluting with the culture medium to give a final concentration of 500 ng/ml, and the culture medium containing 20 ng/ml of mouse NGF (mouse derived, final concentration 10 ng/ml, commercialized by Chemicon International, Inc., CA, USA) (50 μl/well) were added to the precultured PC12-HS cells in each well, and then cultured for three days. Culture medium was removed on day 3 of culture, and cells were fixed by adding 100 μl/well of 10% by volume of glutaraldehyde and standing for 20 minutes at room temperature. As a negative control, PC12-HS cells, cultured for three days with culture medium, were fixed with glutaraldehyde similarly as above. Fixed cells were observed under a microscope to assess the neurite-outgrowth. The neurite-outgrowth rate (%) was determined by observing the cells using a microscope by adjusting the magnitude to give about 100 cells in one visual field, counting the number of cells having neurites twice or more in length of the cell body (major axis), dividing by the total number of cells in the same visual field, and multiplying by 100. Measurements were carried out at three points for each test compound. […] In this experiment, the neurite-outgrowth rate was 5% or less when NGF was added (final concentration 10 ng/ml) without the addition of the test compound.
The method was based on Experiment 1-1, except the concentrations of the test compounds were set to three doses of 40 nM, 200 nM and 1,000 nM for evaluation method A (neurocyte growth accelerating effect), and two doses of 200 nM and 1,000 nM for evaluation method B (neurite outgrowth promoting effect). Measurements were performed in triplicate for each concentration of each test compound in both evaluation methods A and B. The result of the evaluation method A was expressed as a cell proliferation rate (%) by determined a relative percentage (%) when the value of the negative control to which the test compound was not added, was regarded as 100%. […]

[1] = DPPH radical scavenging ability (absorbance method); type: biochemical
Source text: 2,2-Diphenyl-1-picrylhydrazyl (hereinafter referred to as “DPPH”) is a radical with an unpaired electron and has the oxidizing ability of other substances. In addition, because it is stable and easy to handle, it is widely used as an artificial radical-like substance for measuring the antioxidant ability of antioxidants. When DPPH reacts with a substance having antioxidant ability, it loses its own oxidizing ability and its color changes from deep purple to […].
DPPH (commercialized by Tokyo Kasei Kogyo Co., Ltd., Tokyo, Japan) was dissolved in ethanol to prepare a 167 μM DPPH ethanol solution, and 90 μl of the solution was added to each well of the 96-well microplate. A 60 μl each of the test compound serially diluted with ethanol was added to the DPPH ethanol solution, and the mixture was reacted at room temperature for 2 hours, and then the absorbance at 490 nm was measured. […] From those value, the 50% inhibitory concentration of the DPPH radical (Hereinafter, it is referred to as “IC50”) was calculated.

[2] = Superoxide scavenging ability (hypoxanthine/xanthine oxidase, ESR); type: biochemical
Method: In this experiment, superoxide generated by reacting hypoxanthine with xanthine oxidase was captured by 5,5-dimethyl-4-phenyl-1-pyrroline N-oxide (hereinafter referred to as “4PDMPO”) as a spin trapping agent, and SOD-like activity by the test compound was measured by ESR.
Specifically, A 50 μl of aqueous solution of hypoxanthine (commercialized by Fuji Film Wako Pure Chemical Industries, Ltd., Tokyo, Japan) prepared to 1 mM was added to a glass test tube. […] The ESR spectrum of the reaction mixture was measured 40 seconds after the addition of xanthine oxidase, and the radical scavenging ability of the test compound was shown as its relative percentage thereof, with the case where no dye compound was added as the radical intensity of 100%. Measurements were performed in triplicate for each of the concentrations of each test compound, and the IC50 was calculated using the average value thereof and shown in Table 6. […]
A reaction solution for measuring various radicals was placed in a flat quartz cell for ESR, and the ESR spectrum was measured by an ESR device (commercialized by JEOL Ltd., trade name “Free radical Controller JES-FR30”). […] The peak height of the ESR spectrum corresponding to each radical at this time was set as 100, and the relative intensity when the solution was added and reacted was obtained and expressed as the radical residual rate (%). […]

[3] = Hydroxyl radical scavenging ability (Fenton reaction, ESR); type: biochemical; settings: 4PDMPO spin trap
Method: In this experiment, hydroxyl radicals generating from diethylenetriamine-N, N, N′, N″-pentaacetic acid (DTPA) by Fenton reaction were trapped with 4PDMPO and measured by ESRs.
Specifically, each of the dye compounds dissolved in DMSO was diluted with purified water to obtain a test compound solution. To a glass test tube, 50 μl of 1 mM hydrogen peroxide solution and 50 μl of 356 mM 4PDMPO were added, followed by 50 μl of the test compound solution. Then, 50 μl of an aqueous solution containing 1 mM FeSO4 and 1 mM DTPA (commercialized by Fuji Film Wako Pure Chemical Industries, Ltd.) was added thereto, mixed with a vortex mixer for 10 seconds, and then reacted for exactly 40 seconds, and the reaction solution was used for ESR measurement. […]
(§1) Detailed conditions of the ESR measurement are described in this section. A reaction solution for measuring various radicals was placed in a flat quartz cell for ESR, and the ESR spectrum was measured by an ESR device (commercialized by JEOL Ltd., trade name “Free radical Controller JES-FR30”). […] The peak height of the ESR spectrum corresponding to each radical at this time was set as 100, and the relative intensity when the solution was added and reacted was obtained and expressed as the radical residual rate (%). […]

[4] = Peroxyl radical scavenging ability (AAPH, ESR); type: biochemical; settings: DMPO spin trap, AAPH 37° C.
Method: Since the peroxyl radical generated by heating of 2,2′-azobis (2-aminodipropane) dihydrochloride (hereinafter referred to as “AAPH”) is a model of biologically derived radicals, in this experiment, the ability of the test compound to scavenge the peroxyl radical was measured by ESR.
Specifically, each of the dye compounds dissolved in DMSO was diluted with 0.1 M phosphate buffer to prepare a test compound solution. […] Measurements were performed in triplicate for each of the concentrations of each test compound, and the IC50 was calculated using the mean value thereof and shown in Table 6.
as §1

[5] = Solubility in distilled water and ethanol (absorbance method); type: physicochemical
Method: A test sample solution, prepared by dissolving each test compound in DMSO to give a concentration of 5 mg/mL, was diluted with 70% (v/v) acetonitrile aqueous solution, and the absorption spectrum at the wavelength range of 400 nm to 900 nm is measured by a spectrophotometer (“FLEX STATION 3”, manufactured by Molecular Devices Japan, Tokyo, Japan). The maximum absorption wavelength of each test compound was determined, then the correlation equation between the absorbance and the concentration at the wavelength was calculated to prepare a calibration curve, and then the following quantitative test was carried out. […] The solubility of each dye compound was measured as follows with reference to the method described in the Japanese Pharmacopoeia. […] After 30 min, 1 mL of the mixture was sampled at 3 times from each test solution, centrifuged at 18,400×g for 5 min, 0.3 mL of the supernatant was collected and admixed with 0.7 mL of acetonitrile to make a total volume of 1.0 mL. Then, the absorbance was measured at the maximum absorption wavelength corresponding to each of the dyes described above, and the concentration of dye was calculated from the calibration curve.

SMILES	Neurite-outgrowth rate (%) (PC12-HS cells; 1.000 nM)	Neurite-outgrowth rate (%) (PC12-HS cells; 200 nM)	Action on PC12-HS neurite-outgrowth promotion (500 ng/ml) (PC12-HS cells)	neurite-outgrowth promoting activity (in words) (PC12-HS cells)	relative DPPH radical scavenging activity based on the IC50 value, relative to NK-4 [1]	IC50 ([1]; ethanol, room temperature, 2 hours, absorbance at 490 nm) [µM]	superoxide radical scavenging ability relative to NK-4 (comparison of IC50 values) [2]	IC50 ([2]; ESR, 4PDMPO spin trap, read-out: IC50 superoxide radical) [µM]	IC50 [3] [µM]	IC50 [4] [µM]	Solubility Dictilled water ([5]; distilled water, room temperature, 30 min) [µg/mL]	Solubility Ethanol ([5]; ethanol) [µg/mL]
CCN1C=CC(=Cc2cc[n+](CC)c3ccccc23)c2ccccc21.[I-] [NK-6]	41.5	32.6	⊚ (45% or more was judged to be more potent than NK-4 (“double circle”))	stronger neurite-outgrowth promoting activity than NK-4	about 2 times	380	more than twice that of NK-4	69	62	43	93	645
CCCCN1C=CC(=CC=Cc2cc[n+](CCCC)c3ccccc23)c2ccccc21.[I-] [NK-44]	22.9	29.3	◯ (When the mean neurite-outgrowth rate was 25 to 44%, it was judged to be equivalent to the positive control NK-4 (“circle”))	almost equivalent neurite-outgrowth promoting rate to NK-4	–	–	–	–	–	–	–	–
CCN1C=CC(=CC=Cc2cc[n+](CC)c3ccccc23)c2ccccc21.[Br-] [NK-36]	28.7	33.8	◯ (When the mean neurite-outgrowth rate was 25 to 44%, it was judged to be equivalent to the positive control NK-4 (“circle”))	almost equivalent neurite-outgrowth promoting rate to NK-4	–	–	–	–	–	–	–	–

From patent publication US20220031690A1, “ANTI-NEURODEGENERATIVE DISEASE AGENT” (Hayashibara Co., Ltd., priority 2018, published 2022)
